Test results reported in patent US9072703B2 (Ipsen Pharma S.A.S., priority 2008, dated 2015).
Non-standard residues stand in square brackets, D forms with d. No end group written: not given here. *: point of attachment. Myristoyl = CCCCCCCCCCCCCC(=O)*; Ac6c = NC1(C(=O)O)CCCCC1; Nle = CCCC[C@H](N)C(=O)O; Orn = NCCC[C@H](N)C(=O)O; Ac5c = NC1(C(=O)O)CCCC1; Aib = CC(C)(N)C(=O)O

How the values were obtained:
Sprague Dawley rats = assay: Determination of in vivo insulin secretion in normal rats; design: species or system rat
Protocol: D. Determination of In Vivo Insulin Secretion in Normal Rats
Male Sprague Dawley rats with a body weight of approximately 275-300 g were used as experimental subjects. The day prior to the treatment, right atrial cannulae were implanted via the jugular vein under chlorohydrate. Each cannula was filled with 100 u/ml heparin saline and tied. The rats were fasted for approximately 18 hours prior to dosing with the compound or the vehicle (saline/0.25% BSA). The day of the experiment, aliquots of compound were thawed, brought to room temperature and vortexed thoroughly. A careful check was made for any sign of compound coming out of solution. 10 minutes prior to compound/glucose injection, a 500 μl blood sample was withdrawn and replaced with an equal volume of heparinized saline (10 u/ml). At time 0, a 500 μl blood sample was withdrawn through the cannula. Next, either the vehicle or the appropriate dose of the compound was injected into the cannula and pushed in with the glucose (1 g/kg) or vehicle solution. Finally, 500 μl of volume of heparinized saline (10 u/ml) was used to push in the remaining glucose through the cannula. Additional 500 μl blood samples were withdrawn at 2.5, 5, 10, and 20-minute post-glucose dosing; each immediately followed by a bolus, iv injection of 500 μl heparinized saline (10 u/ml) through the cannula. The plasma was collected from the blood samples by centrifugation, and stored at −20° C. until assay for insulin content.
The in vivo effect of the compound of Example 20 was determined in a separate test under the identical experimental conditions as described above, and numerical values of the total insulin secretion for the compound of Example 20 are summarized in Table 4.

[1] = Rat plasma half-life assay; format: in vitro ADME; settings: 37° C., LC-MS, read-out: Rat Plasma T½ (converted)
[2] = Human plasma half-life assay; format: in vitro ADME; settings: 37° C., LC-MS, read-out: Human Plasma T½ (converted)
[3] = molecular target: T1, human recombinant GIP receptor (Homo sapiens, UniProt P48546); assay: In vitro hGIP receptor binding assay
T1 construct: expressed in transfected cells; host or cells: CHO-K1 clonal cells (membrane preparation)
T1 sequence (P48546 22-466): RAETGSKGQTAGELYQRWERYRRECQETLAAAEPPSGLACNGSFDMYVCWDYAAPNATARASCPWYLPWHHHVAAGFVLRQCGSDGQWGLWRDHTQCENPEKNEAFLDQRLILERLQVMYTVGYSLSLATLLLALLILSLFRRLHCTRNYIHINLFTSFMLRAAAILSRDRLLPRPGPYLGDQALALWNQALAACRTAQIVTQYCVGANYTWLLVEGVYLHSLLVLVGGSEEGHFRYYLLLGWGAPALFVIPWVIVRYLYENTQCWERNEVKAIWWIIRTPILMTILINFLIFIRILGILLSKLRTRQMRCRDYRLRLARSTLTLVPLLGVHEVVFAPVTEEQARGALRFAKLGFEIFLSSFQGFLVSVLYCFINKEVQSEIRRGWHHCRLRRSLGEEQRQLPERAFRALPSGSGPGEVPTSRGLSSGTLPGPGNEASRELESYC
Protocol: The final assay volume was 0.5 ml. The incubations were terminated by rapid filtration through GF/C filters (pre-soaked in 0.5% polyethylenimine) using a Brandel filtration manifold. Each tube and filter were then washed three times with 5-ml aliquots of ice-cold buffer.

[4] = Table 3, fasted male Sprague Dawley rats, compound by cannula with glucose 1 g/kg, blood samples to 20 min

| Molecule | AUC (total insulin secretion) (Sprague Dawley rats; [4]) | half-life at 0.1 mg/ml [1] [h] | half-life at 0.1 mg/ml [2] [h] | AUC (total insulin secretion) (Sprague Dawley rats; Table 4, separate test under identical experimental conditions) | Ki [3] [µM] |
| --- | --- | --- | --- | --- | --- |
| CC[C@H](C)[C@H](NC(=O)[C@H](CCCCN)NC(=O)[C@H](CC(=O)O)NC(=O)[C@H](CCSC)NC(=O)[C@H](C)NC(=O)[C@@H](NC(=O)C1(NC(=O)[C@H](Cc2ccc(O)cc2)NC(=O)[C@H](CC(=O)O)NC(=O)[C@H](CO)NC(=O)[C@@H](NC(=O)[C@H](Cc2ccccc2)NC(=O)[C@@H](NC(=O)CNC(=O)[C@H](CCC(=O)O)NC(=O)[C@H](C)NC(=O)[C@@H](N)Cc2ccc(O)cc2)[C@@H](C)O)[C@@H](C)CC)CCCC1)[C@@H](C)CC)C(=O)N[C@@H](Cc1c[nH]cn1)C(=O)N[C@@H](CCC(N)=O)C(=O)N[C@@H](CCC(N)=O)C(=O)N[C@@H](CC(=O)O)C(=O)N[C@@H](Cc1ccccc1)C(=O)N[C@H](C(=O)N[C@@H](CC(N)=O)C(=O)N[C@@H](Cc1c[nH]c2ccccc12)C(=O)N[C@@H](CC(C)C)C(=O)N[C@@H](CC(C)C)C(=O)N[C@@H](C)C(=O)N[C@@H](CCC(N)=O)C(=O)N[C@@H](CCCCN)C(=O)NCC(=O)N[C@@H](CCCCN)C(=O)N[C@@H](CCCCN)C(=O)N[C@@H](CC(N)=O)C(=O)N[C@@H](CC(=O)O)C(=O)N[C@@H](Cc1c[nH]c2ccccc12)C(=O)N[C@@H](CCCCN)C(=O)N[C@@H](Cc1c[nH]cn1)C(=O)N[C@@H](CC(N)=O)C(=O)N[C@H](C(=O)N[C@H](C(=O)N[C@@H](CCC(N)=O)C(=O)N[C@@H](Cc1c[nH]cn1)C(=O)O)[C@@H](C)O)[C@@H](C)CC)C(C)C [Example 3, (A5c^11, His^43)hGIP(1-43)-OH] | 269.83 | 1.9 | 7 | – | – |
| CC[C@H](C)[C@H](NC(=O)[C@H](CCCCN)NC(=O)[C@H](CC(=O)O)NC(=O)C1(NC(=O)[C@H](C)NC(=O)[C@@H](NC(=O)C2(NC(=O)[C@H](Cc3ccc(O)cc3)NC(=O)[C@H](CC(=O)O)NC(=O)[C@H](CO)NC(=O)[C@@H](NC(=O)[C@H](Cc3ccccc3)NC(=O)[C@@H](NC(=O)CNC(=O)[C@H](CCC(=O)O)NC(=O)[C@H](C)NC(=O)[C@@H](N)Cc3ccc(O)cc3)[C@@H](C)O)[C@@H](C)CC)CCCC2)[C@@H](C)CC)CCCC1)C(=O)N[C@@H](Cc1c[nH]cn1)C(=O)N[C@@H](CCC(N)=O)C(=O)N[C@@H](CCC(N)=O)C(=O)N[C@@H](CC(=O)O)C(=O)N[C@@H](Cc1ccccc1)C(=O)N[C@H](C(=O)N[C@@H](CC(N)=O)C(=O)N[C@@H](Cc1c[nH]c2ccccc12)C(=O)N[C@@H](CC(C)C)C(=O)N[C@@H](CC(C)C)C(=O)N[C@@H](C)C(=O)N[C@@H](CCC(N)=O)C(=O)N[C@@H](CCCCN)C(=O)NCC(=O)N[C@@H](CCCCN)C(=O)N[C@@H](CCCCN)C(=O)N[C@@H](CC(N)=O)C(=O)N[C@@H](CC(=O)O)C(=O)N[C@@H](Cc1c[nH]c2ccccc12)C(=O)N[C@@H](CCCCN)C(=O)N[C@@H](Cc1c[nH]cn1)C(=O)N[C@@H](CC(N)=O)C(=O)N[C@H](C(=O)N[C@H](C(=O)N[C@@H](CCC(N)=O)C(=O)N[C@@H](Cc1c[nH]cn1)C(=O)O)[C@@H](C)O)[C@@H](C)CC)C(C)C [Example 20, (A5c^11, 14, His^43)hGIP(1-43)-OH] | – | 4.9 | 7.2 | 149.39 | – |
| Glucose-dependent insulinotropic polypeptide [GIP, reference compound] | 114.87 | – | – | – | – |
| YAEGTFISDYSI[Aib]MDKIHQQDFVNWLLAQKGKKNDWKHNITQD-NH2 [Example 5, (Aib^13, Asp^43)hGIP(1-43)-NH2] | 196.17 | 1.3 | 5.5 | – | – |
| YAEGTFISDYSI[Aib]MDKIHQQDFVNWLLAQKGKKNDWKHN[Ac5c]TQ-OH [Example 7, (Aib^13, A5c^40)hGIP(1-42)-OH] | 176.90 | 1.7 | 7 | – | – |
| YAEGTFISDYSI[Aib][Nle]DKIHQQDFVNWLLAQKGKKNDWKHN[Ac5c]TQ-OH [Example 6, (Aib^13, Nle^14, A5c^40)hGIP(1-42)-OH] | 180.31 | 1.9 | 7.8 | – | – |
| YAEGTFISDY[Ac5c]IAMDKIHQQDFVNWLLAQKGKKNDWKHNITQN-OH [Example 4, (A5c^11, Asn^43)hGIP(1-43)-OH] | 265.11 | 4.1 | 7.2 | – | – |
| YAEGTFISDY[Ac5c]IAMDKIHQQDFVNWLLAQKGKKNDWKHNI[Ac5c]Q-OH [Example 1, (A5c^11, 41)hGIP(1-42)-OH] | 304.92 | 2.2 | 11.4 | – | – |
| YAEGTFISDY[Ac5c]IAMDKIHQQDFVNWLLAQKGKKNDWKHN[Ac5c]TQ-OH [Example 2, (A5c^11, 40)hGIP(1-42)-OH] | 286.02 | 2.7 | 14.1 | – | – |
| YAEGTF[Ac6c]SDYSIAMDKIHQQDFVNWLLAQK[Orn](Myristoyl)KKNDWKHNITQ-OH [Example 19, [A6c^7, Orn^31(N—C(O)—(CH2)12—CH3)]hGIP(1-42)-OH] | – | 54.6 | 6.3 | – | 0.018 |
